Earlier results on two compounds are cited in patent US20140106406A1, “GENE CLUSTER FOR THE PRODUCTION OF GOUGEROTIN, GOUGEROTIN ANALOGUES, AND PRECURSORS THEREOF” (Bayer Cropscience LP, priority 2012, published 2014).

SMILES strings stand for the structures.

One data set relates to powdery mildew. The conditions noted are these: against powdery mildew.
In data set [1] the test system is parasites on animals, such as pin worm.
Data set [2] deals with gram-positive, gram-negative bacteria and tubercule bacillus.

Consider `NC(N)=NCC(O)CC(O)(C(=O)O)[C@H]1O[C@@H](n2cc(CO)c(N)nc2=O)C=C[C@@H]1NC(=O)[C@@H](N)CO` (stereo partly drawn) [antibiotic B-98891], for which, in the data set with powdery mildew, the antifungal activity result was “antifungal activity”.
On to `CNCC(=O)NC(CO)C(=O)NC1C(C(N)=O)OC(n2ccc(N)nc2=O)C(O)C1O` (stereo not drawn) [gougerotin], for which the parasiticidal action result in data set [1] is reported as “parasiticidal action”. Also, in data set [2], the antibacterial activity entry is recorded as “weak antibacterial activity”.
